Source: patent US11701372B2, “Inhalation formulations of 1'-cyano substituted carba-nucleoside analogs” (priority 2020, dated 2023)
Read-outs that look alike come from different tables or passages of the source. Marks after values point to notes of the source that are not given here.

Columns and labels:
[1] = Respiratory tissue concentrations after inhalation in African Green Monkeys; settings: 24 hours
Method: The average deposited dose was calculated at 0.168 mg/kg and 0.536 mg/kg, respectively. Plasma, peripheral blood mononuclear cells (PBMCs), trachea, bronchi, lung lobe, liver, kidney, nasal mucosa and nasopharyngeal mucosa samples were collected in this study.

[2] = format: physicochemical
Method: Samples for freeze-thaw cycling were also prepared and tested. For each condition, the physical stability was measured as % LS (label strength) and compared to % LS at T=0. […] The 7.5% SBECD formulation is also stable to freeze/thaw cycling (three cycles performed).

[3] = format: physicochemical; remark: listed apart in the source
Method: For each conditions, the physical stability was measured as % LS and compared to % LS at T=0.

[4] = Nebulizer performance (PARI LC Sprint jet nebulizer); format: physicochemical; settings: 5 mg/mL Formula Ia, 15% w/v SBECD, 8 mL charge; collected aerosol and residual solution
[5] = Characterisation of milled suspension formulations (osmolarity, pH, particle size); format: physicochemical; settings: 0.5% w/v poloxamer 237, 0.9% sodium chloride
Method: The vial capped, vortexed briefly, and then placed in a Bertin Instruments Precellys® Evolution blender. The blender was used to wet mill the mixture for 15×30 second cycles, with 120 second rest time between cycles. The blender speed was 7,200 rpm and cooling set was set to high. After milling, the milled suspension was separated from the beads by withdrawing the suspension from the vial using a syringe with a 1.5'' 25G needle. The recovered volume of the concentrated suspension was noted as 2.97 mL, and the concentration was measured as 25.8 mg/mL. The suspension was diluted with 2.14 mL of vehicle to obtain the target concentration of 15 mg/mL. […] The chiller set to 30° F., pump set to 100 rpm, and agitator set to 3000 rpm. The pump was primed with 100 mL of vehicle, and the first 80 mL of flowthough from priming was sent to waste. The mill was then set to recirculate as feeding continued with the addition of 150 mL of pre-mill formulation intermediate, followed by 25 mL of vehicle rinse. The formulation was allowed to recirculate though the mill for 1 hr, after which the flow was directed to a collection bottle. After 100 mL of concentrated suspension formulation was collected in the bottle, a vehicle chase was fed into the mill. Collection was stopped when the recovered volume reached 250 mL.

[6] = 7.5% SBECD w/v, 2-8° C., 24 h timepoint
[7] = 7.5% SBECD w/v, RT, 24 h timepoint
[8] = 15 mg/mL in water with 0.1% w/v HPMC

N#C[C@@]1(c2ccc3c(N)ncnn23)O[C@H](CO)[C@@H](O)[C@H]1O [Compound A]
Metabolite Concentrations ([1]; Lower Lung Lobe, 0.168 mg/kg inhaled deposited dose, LOQ for A and C 0.154 nmol/g tissue): BLQ
Metabolite Concentrations ([1]; Lower Lung Lobe, 0.536 mg/kg inhaled deposited dose, LLOQ for A and C 0.154 nmol/g tissue): BLQ
Metabolite Concentrations ([1]; Upper Bronchi, 0.168 mg/kg inhaled deposited dose, LOQ for A and C 0.154 nmol/g tissue): BLQ
Metabolite Concentrations ([1]; Upper Bronchi, 0.536 mg/kg inhaled deposited dose, LLOQ for A and C 0.154 nmol/g tissue): BLQ
Metabolite Concentrations ([1]; Upper Trachea, 0.168 mg/kg inhaled deposited dose, LOQ for A and C 0.154 nmol/g tissue): BLQ
Metabolite Concentrations ([1]; Upper Trachea, 0.536 mg/kg inhaled deposited dose, LLOQ for A and C 0.154 nmol/g tissue): BLQ

CCC(CC)COC(=O)[C@H](C)N[P@](=O)(OC[C@H]1O[C@@](C#N)(c2ccc3c(N)ncnn23)[C@H](O)[C@@H]1O)Oc1ccccc1 [Formula Ia, (S)-2-ethylbutyl 2-(((S)-(((2R,3S,4R,5R)-5-(4-aminopyrrolo[2,1-f][1,2,4]triazin-7-yl)-5-cyano-3,4-dihydroxytetrahydrofuran-2-yl)methoxy)(phenoxy)phosphoryl)amino)propanoate]
% LS (Initial) ([2]; 5% SBECD w/v): 101 % LS
% LS After Stress, Hold ([2]; 5% SBECD w/v, 2-8° C. (48 h)): 101 % LS
% LS After Stress, Hold After Seeding ([2]; 5% SBECD w/v, 2-8° C. (48 h)): 80 % LS
% LS After Stress, Hold ([2]; 5% SBECD w/v, RT (48 h)): 101 % LS
% LS After Stress, Hold After Seeding ([2]; 5% SBECD w/v, RT (48 h)): 68 % LS
% LS After Stress, Freeze-thaw (3x) ([2]; 5% SBECD w/v, after seeding): 69 % LS
% LS After Stress, Freeze-thaw (3x) ([2]; 5% SBECD w/v, without seeding): 101 % LS
% LS (Initial) ([2]; 7.5% SBECD w/v): 101 % LS
% LS After Stress, Hold [2, 6]: 104* % LS
% LS After Stress, Hold After Seeding [2, 6]: 103* % LS
% LS After Stress, Hold [2, 7]: 103* % LS
% LS After Stress, Hold After Seeding [2, 7]: 102* % LS
% LS After Stress, Freeze-thaw (3x) ([2]; 7.5% SBECD w/v, after seeding): 97 % LS
% LS After Stress, Freeze-thaw (3x) ([2]; 7.5% SBECD w/v, without seeding): 99 % LS
% LS (Initial) ([2]; 10% SBECD w/v): 101 % LS
% LS After Stress, Hold ([2]; 10% SBECD w/v, 2-8° C. (48 h)): 101 % LS
% LS After Stress, Hold After Seeding ([2]; 10% SBECD w/v, 2-8° C. (48 h)): 99 % LS
% LS After Stress, Hold ([2]; 10% SBECD w/v, RT (48 h)): 101 % LS
% LS After Stress, Hold After Seeding ([2]; 10% SBECD w/v, RT (48 h)): 98 % LS
% LS After Stress, Freeze-thaw (3x) ([2]; 10% SBECD w/v, after seeding): 98 % LS
% LS After Stress, Freeze-thaw (3x) ([2]; 10% SBECD w/v, without seeding): 100 % LS
% LS (Initial) ([2]; 20% SBECD w/v): 102 % LS
% LS After Stress, Hold ([2]; 20% SBECD w/v, 2-8° C. (48 h)): 101 % LS
% LS After Stress, Hold After Seeding ([2]; 20% SBECD w/v, 2-8° C. (48 h)): 101 % LS
% LS After Stress, Hold ([2]; 20% SBECD w/v, RT (48 h)): 101 % LS
% LS After Stress, Hold After Seeding ([2]; 20% SBECD w/v, RT (48 h)): 101 % LS
% LS After Stress, Freeze-thaw (3x) ([2]; 20% SBECD w/v, after seeding): 100 % LS
% LS After Stress, Freeze-thaw (3x) ([2]; 20% SBECD w/v, without seeding): 100 % LS
physical stability [3]: stable
% LS T0 ([3]; pH 3.8): 99 % LS
% LS After Stress, Hold ([3]; pH 3.8, 2-8° C. (1 wk)): 99 % LS
% LS After Stress, Hold After Seeding ([3]; pH 3.8, 2-8° C. (1 wk)): 88 % LS
% LS After Stress, Hold ([3]; pH 3.8, 2-8° C. (48 h)): 99 % LS
% LS After Stress, Hold After Seeding ([3]; pH 3.8, 2-8° C. (48 h)): 99 % LS
% LS After Stress, Hold ([3]; pH 3.8, 2-8° C. (72 h)): 99 % LS
% LS After Stress, Hold After Seeding ([3]; pH 3.8, 2-8° C. (72 h)): 99 % LS
% LS After Stress, Hold ([3]; pH 3.8, 2-8° C., 24 h): 100 % LS
% LS After Stress, Hold After Seeding ([3]; pH 3.8, 2-8° C., 24 h): 100 % LS
% LS After Stress, Freeze-thaw (3X) ([3]; pH 3.8, (+) seed): 99 % LS
% LS After Stress, Freeze-thaw (3X) ([3]; pH 3.8, (−) seed): 99 % LS
% LS After Stress, Hold ([3]; pH 3.8, RT (1 wk)): 99 % LS
% LS After Stress, Hold After Seeding ([3]; pH 3.8, RT (1 wk)): 65 % LS
% LS After Stress, Hold ([3]; pH 3.8, RT (24 h)): 100 % LS
% LS After Stress, Hold After Seeding ([3]; pH 3.8, RT (24 h)): 99 % LS
% LS After Stress, Hold ([3]; pH 3.8, RT (48 h)): 99 % LS
% LS After Stress, Hold After Seeding ([3]; pH 3.8, RT (48 h)): 99 % LS
% LS After Stress, Hold ([3]; pH 3.8, RT (72 h)): 99 % LS
% LS After Stress, Hold After Seeding ([3]; pH 3.8, RT (72 h)): 99 % LS
% LS T0 ([3]; pH 4.0): 100 % LS
% LS After Stress, Hold ([3]; pH 4.0, 2-8° C. (1 wk)): 99 % LS
% LS After Stress, Hold ([3]; pH 4.0, 2-8° C. (48 h)): 99 % LS
% LS After Stress, Hold After Seeding ([3]; pH 4.0, 2-8° C. (48 h)): 79 % LS
% LS After Stress, Hold ([3]; pH 4.0, 2-8° C. (72 h)): 100 % LS
% LS After Stress, Hold After Seeding ([3]; pH 4.0, 2-8° C. (72 h)): 67 % LS
% LS After Stress, Hold ([3]; pH 4.0, 2-8° C., 24 h): 100 % LS
% LS After Stress, Hold After Seeding ([3]; pH 4.0, 2-8° C., 24 h): 96 % LS
% LS After Stress, Freeze-thaw (3X) ([3]; pH 4.0, (+) seed): 99 % LS
% LS After Stress, Freeze-thaw (3X) ([3]; pH 4.0, (−) seed): 99 % LS
% LS After Stress, Hold ([3]; pH 4.0, RT (1 wk)): 98 % LS
% LS After Stress, Hold ([3]; pH 4.0, RT (24 h)): 100 % LS
% LS After Stress, Hold After Seeding ([3]; pH 4.0, RT (24 h)): 69 % LS
% LS After Stress, Hold ([3]; pH 4.0, RT (48 h)): 99 % LS
% LS After Stress, Hold After Seeding ([3]; pH 4.0, RT (48 h)): 60 % LS
% LS After Stress, Hold ([3]; pH 4.0, RT (72 h)): 100 % LS
% LS After Stress, Hold After Seeding ([3]; pH 4.0, RT (72 h)): 58 % LS
change in % peak area for Formula Ia or its identified impurities after nebulization [4]: No significant change
osmolarity [5, 8]: 285 mOsm/kg
pH [5, 8]: 6.89
volume mean diameter particle size [5, 8]: 3.65 μm
particle size by polarized light microscopy ([5]; 100 mg/mL in water with 0.1% w/v HPMC): < 5 μm
